From patent US4396607A, “Muramyl peptide derivatives and pharmaceutical compositions” (priority 1978, dated 1983)

How the values were obtained:
[1] = Toxicity (lethal dose 50) by parenteral administration in the adrenalectomised mouse; format: in vivo, mice
Description: The toxicity of the products according to the invention was investigated by parenteral administration in mice. It was observed that the toxic doses were of an order of magnitude very much higher than that of the doses at which these products manifest their activity. Thus the lethal dose 50 of the products according to the invention tested was higher than 5 mg/kg of animal in the adrenalectomised mouse, whose sensitivity to endotoxins is well-known.

[2] = test system: Limulus amoebocyte lysate; assay: Limulus test (endotoxic type activity); conditions: gel formation after 20 minutes at 37° C.
Description: For this purpose, 0.1 ml of the Limulus amoebocyte lysate preparation (marketed by the MALLINCKRODT Company, at St. LOUIS, U.S.A.) was mixed with an equal volume of the tested product at various concentrations in solution in apyrogenic distilled water. The vessels used were also made apyrogenic by dry heating in the oven, at 180° C., for 2 hours.
After incubating the mixture for 20 minutes at 37° C. in tubes, the formation of gel characteristics of the presence of endotoxin was estimated.

[3] = test system: bovine serum albumin (BSA); assay: Adjuvant character in the aqueous phase (antibody titer by passive hemagglutination); format: in vivo, Swiss mice; conditions: mice, 0.5 mg BSA with 0.1 mg tested substance SC in isotonic saline, booster day 30, titer at the 36th day
Description: (§1) Groups of 8 Swiss mice aged two months received, by sub-cutaneous injection (SC), 0.5 mg of antigen constituted by bovine serum albumin (BSA) with 0.1 mg or without the tested substance in an isotonic saline solution. This high dose of antigen, because it is situated at the limit of the paralyzing dose with respect to the immunitary response, results, for this reason, in a weak or zero response to the antigen only in the controls: It constitutes therefore a severe criterien to establish the activity of an adjuvant substance. Thirty days later, the mice received, by the same administrative route, a booster containing 0.1 mg of the same antigen.
(§2) The antibody level was determined, six days after the booster, by passive hemagglutination using sheep's red blood corpuscles treated with formalin and covered with the antigen studied according to the method described by A. A. HIRATA and M. W. BRANDISS (J. Immunol., 100, 641-648, 1968).
The antibody titer, represented by the maximum serum dilution agglutinating a given amount of sheep corpuscles, reaches a maximum at the 36th day and is established in the following manner: […]

[4] = test system: Ovalbumin; assay: Adjuvant character in emulsion (delayed hypersensitivity and antibodies); format: in vivo, Hartley guinea pigs; conditions: guinea pigs, 50 μg in AlF emulsion with 1 mg ovalbumin; for Log2 of the hemagglutinating titer: serum day 21; for HSR (diameter of the delayed hypersensitivity reaction): skin test day 18, read 48 hours later
Description: The tests were carried out on batches of 6 male Hartley guinea pigs of 350 g. The administration was done by intradermal injection into the plantar pad of each of the rear paws. Ovalbumin (constituting the antigen) in the amount of 1 mg is prepared in 0.1 ml of an emulsion of saline isotonic solution, in any oily phase constituted either by the Freund imcomplete adjuvant (FIA), or by the complete adjuvant (FCA) formed by the FIA to which is added 0.1 mg of whole Mycobacterium smegmatis cells. The compound according to the invention was administered in the amount of 0.05 mg added in the emulsion containing the FIA.
Eighteen days after this immunization, possible delayed hypersensitivity reactions to the antigen were sought by injecting by the intradermal route 0.01 mg of ovalbumin in the side of the animals, and 48 hours later, the reaction of the point of injection was observed. The diameter in millimeters of the reaction thus caused was measured.
Twenty-one days after the injection, the animals were bled. […]

[5] = test system: Klebsiella pneumoniae; assay: Anti-infectious activity with respect to Klebsiella; format: in vivo; conditions: mice, i.v. treatment 24h before 2 × 10^4 bacteria i.m.
Description: The survival of groups of inoculated mice under the above conditions and treated by means of the products according to the invention was followed.
The infecting dose was 2.10^4 Klebsiella; it was administered by the intramuscular route.
The administration of the tested product was carried out by the intravenous route in 0.2 ml of apyrogenic physiological solution, the controls receiving the solution alone. It was carried out 24 hours before the inoculation.
The percentage protection indicated is a difference of the percentages of survivors of the treated group with respect to the control group.

[6] = Liposome forms: toxicity in the adrenalectomized mouse; format: in vivo; conditions: groups of six mice, 100 μg
Description: Pharmacological tests similar to the preceding ones were reproduced with MDP, MDP-L-Ala-eicosyl-ester and MDP-L-Ala-glyceryl-mycolate comparing the effects of administration in liposome form with those obtained for products in solution and with liposomes without muramyl-peptide.
The liposomes were prepared in the manner described above.
The products, the doses administered and their effect on the mortality of groups of six mice are indicated below.

[7] = test system: BSA; assay: Liposome forms: adjuvant character in mice, BSA as antigen; format: in vivo; conditions: 10 μg
Description: as §1, §2
The series of tests was carried out on mice under the same conditions as indicated in (3)(a), using BSA as antigen.

[8] = test system: ovalbumin; assay: Liposome forms: adjuvant character in guinea pigs, ovalbumin in aqueous solution; format: in vivo, Hartley male guinea pigs; conditions: ovalbumin 1 mg in foot pad
Description: The antigen was ovalbumin injected in aqueous solution in the foot pad of Hartley male guinea pigs at a volume of 0.1 ml in each rear paw, at the dose of 1 mg per guinea pig. The adjuvant preparations were injected simultaneously at the indicated doses. After three weeks, the animals received by the dermal route, in a volume of 0.1 ml, 0.025 mg of antigen. The diameter of the cutaneous reactions was measured after 48 hours. The animals were bled and the titers measured.

[9] = test system: Klebsiella; assay: Liposome forms: anti-Klebsiella activity (intravenous infection); format: in vivo; conditions: mice, i.v. treatment at D - 1, 1.5.10^3 Klebsiella i.v.
Description: Under the previously described conditions, with the exception of the infection produced by the intravenous injection of 1.5.10^3 Klebsiella, the tests are renewed to determine the anti-infectious action. The administrations in the form of solution and of liposome were prepared.

[10] = test system: Listeria monocytogenes; assay: Liposome forms: anti-Listeria activity; format: in vivo; conditions: mice, 1.10^3 Listeria i.v.
Description: The tests were carried out under the conditions of (5), using a dose of Listeria monocytogen, known to cause typically a cellular type infection.
The treatment of the mice and the inoculation were carried out by the intravenous route. The products were injected in the liposome form at the indicated doses. The controls only received isotonic solution.
The dose of Listeria administered was, in all the tests, 1.10^3 cells.
The tests whose results are given below were carried out by varying the interval of time separating the treatment of inoculation from the Listeria monocytogenes (either 1, either 4, or 8 days). The number of surviving mice at the 5th and at the 10th day following inoculation was followed, and the percentage protection determined as for the preceding tests.

[11] = test system: ovalbumin; assay: Liposome forms: adjuvant character in Wistar rats, ovalbumin; format: in vivo; conditions: ovalbumin 0.5 mg s.c., 200 μg
Description: The antigen was ovalbumin injected by the subcutaneous route in male Wistar rats in a volume of 0.5 ml at the dose of 0.5 mg. The adjuvant preparations were injected simultaneously, at the dose indicated. At day 20, the animals received a booster of 0.5 mg of antigen alone by the same route. The serums were drawn and tested under the same conditions as in the mouse with the appropriate antigen.

[12] = i.v. treatment at D - 1, dose 100 μg
[13] = i.v. treatment at D - 4, dose 100 μg
[14] = i.v. treatment at D - 8, dose 100 μg

Compound	lethal dose 50 [1]	Log2 hemagglutinating titer [3]	Log2 of the hemagglutinating titer [4]	HSR (diameter of the delayed hypersensitivity reaction) [4]	% of protection ([5]; dose per mouse 10)	Number of survivors at day 3 ([5]; dose per mouse 10)	Number of survivors at day 5 ([5]; dose per mouse 10)	Number of survivors at day 8 ([5]; dose per mouse 10)	% of protection ([5]; dose per mouse 100)	Number of survivors at day 3 ([5]; dose per mouse 100)	Number of survivors at day 5 ([5]; dose per mouse 100)	Number of survivors at day 8 ([5]; dose per mouse 100)	Number of dead mice [6]	Log2 of the hemagglutinating titer [7]	% of protection ([9]; 1 μg)	Number of survivors at D + 3 ([9]; 1 μg)	Number of survivors at D + 5 ([9]; 1 μg)	Number of survivors at D + 8 ([9]; 1 μg)	% of protection ([9]; 10 μg)	Number of survivors at D + 3 ([9]; 10 μg)	other results
CCCCCCCCCCCCCCCCCCCCOC(=O)[C@H](C)NC(=O)CC[C@@H](NC(=O)[C@H](C)NC(=O)[C@@H](C)O[C@H]1[C@H](O)[C@@H](CO)OC(O)[C@@H]1NC(C)=O)C(N)=O (stereo partly drawn) [MDP--L--Ala--eicosyl--ester, eicosyl ester of N-acetyl-muramyl-L-alanyl-D-isoglutamine-L-alanine]	higher than 5 mg/kg	7.11 ± 2.03	11.25 ± 1.14	6 ± 4 millimeters	46%	18	14	14	70%	23	23	20	0/6	3.64 ± 1.15	25%	4	4	4	31%	13	Limulus test result (concentration of the tested product) [2]: 10 µg/mL; Log2 of the hemagglutinating titer ([8]; 200 μg): 7.33 ± 1.51; HSR (diameter of the cutaneous reactions; in parentheses number of animals showing the reaction) ([8]; 200 μg, read after 48 hours): 0; Number of survivors at D + 5 ([9]; 10 μg): 9; Number of survivors at D + 8 ([9]; 10 μg): 9; % of protection ([9]; 100 μg): 63%; Number of survivors at D + 3 ([9]; 100 μg): 14; Number of survivors at D + 5 ([9]; 100 μg): 14; Number of survivors at D + 8 ([9]; 100 μg): 14; % of protection [10, 12]: 0%; Number of survivors D + 5 [10, 12]: 3; Number of survivors D + 10 [10, 12]: 0; % of protection [10, 13]: 0%; Number of survivors D + 5 [10, 13]: 4; Number of survivors D + 10 [10, 13]: 4; % of protection [10, 14]: 0%; Number of survivors D + 5 [10, 14]: 2; Number of survivors D + 10 [10, 14]: 2
N-acetyl-muramyl-L-alanyl-D-isoglutaminyl-L-alanylglyceryl-mycolate [MDP--L--Ala--glyceryl--mycolate]	higher than 5 mg/kg	7.47 ± 1.17	12.77 ± 0.83	21± 3 millimeters	33%	5	4	4	79%	23	23	23	0/6	2.07 ± 1.13	0%	2	2	2	25%	9	Log2 of the hemagglutinating titer [11]: 7.64 ± 1.90; HSR (diameter of the cutaneous reactions) ([8]; dose not given): 0; Log2 of the hemagglutinating titer ([8]; dose not given): 8.64 ± 1.83; Number of survivors at D + 5 ([9]; 10 μg): 8; Number of survivors at D + 8 ([9]; 10 μg): 8; % of protection ([9]; 100 μg): 63%; Number of survivors at D + 3 ([9]; 100 μg): 8; Number of survivors at D + 5 ([9]; 100 μg): 7; Number of survivors at D + 8 ([9]; 100 μg): 7; % of protection [10, 12]: 0%; Number of survivors D + 5 [10, 12]: 3; Number of survivors D + 10 [10, 12]: 2; % of protection [10, 13]: 0%; Number of survivors D + 5 [10, 13]: 1; Number of survivors D + 10 [10, 13]: 0; % of protection [10, 14]: 0%; Number of survivors D + 5 [10, 14]: 1; Number of survivors D + 10 [10, 14]: 0
